Results on two compounds are retold here after paper doi:10.1101/2025.11.20.689572v1 (biorxiv, 2025).

One test concerns the target T1, HTR1A (Homo sapiens, UniProt P08908).
T1 sequence (P08908 1-422): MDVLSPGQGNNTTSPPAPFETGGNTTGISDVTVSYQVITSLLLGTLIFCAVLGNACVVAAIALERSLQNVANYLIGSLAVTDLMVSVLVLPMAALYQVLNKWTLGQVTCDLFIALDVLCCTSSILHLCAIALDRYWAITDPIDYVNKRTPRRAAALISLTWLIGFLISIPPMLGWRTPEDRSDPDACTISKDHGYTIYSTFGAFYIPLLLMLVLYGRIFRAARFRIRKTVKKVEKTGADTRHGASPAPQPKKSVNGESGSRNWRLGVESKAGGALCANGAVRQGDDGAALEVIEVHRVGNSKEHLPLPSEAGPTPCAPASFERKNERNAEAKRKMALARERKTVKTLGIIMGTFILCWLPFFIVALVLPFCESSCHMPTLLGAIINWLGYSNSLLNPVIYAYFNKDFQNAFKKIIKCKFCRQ
Briefly: cell-based. Also noted: species or system HEK293; TRUPATH BRET2 G-protein dissociation; antagonist mode against agonist EC80. The note with it: agonist mode, % of control agonist.

The target of a further test is CHRM3 (Homo sapiens, UniProt P20309). Description: cell-based. Also on record: species or system HEK293; TRUPATH BRET2 G-protein dissociation; antagonist mode against agonist EC80. To be noted: agonist mode, % of control agonist.
Another test has as its target HTR1D (Homo sapiens, UniProt P28221). Description: cell-based. Also on record: species or system HEK293; TRUPATH BRET2 G-protein dissociation; antagonist mode against agonist EC80. The note with it: agonist mode, % of control agonist.
The next test concerns the target T2, CHRM2 (Homo sapiens, UniProt P08172).
T2 sequence (P08172 1-466): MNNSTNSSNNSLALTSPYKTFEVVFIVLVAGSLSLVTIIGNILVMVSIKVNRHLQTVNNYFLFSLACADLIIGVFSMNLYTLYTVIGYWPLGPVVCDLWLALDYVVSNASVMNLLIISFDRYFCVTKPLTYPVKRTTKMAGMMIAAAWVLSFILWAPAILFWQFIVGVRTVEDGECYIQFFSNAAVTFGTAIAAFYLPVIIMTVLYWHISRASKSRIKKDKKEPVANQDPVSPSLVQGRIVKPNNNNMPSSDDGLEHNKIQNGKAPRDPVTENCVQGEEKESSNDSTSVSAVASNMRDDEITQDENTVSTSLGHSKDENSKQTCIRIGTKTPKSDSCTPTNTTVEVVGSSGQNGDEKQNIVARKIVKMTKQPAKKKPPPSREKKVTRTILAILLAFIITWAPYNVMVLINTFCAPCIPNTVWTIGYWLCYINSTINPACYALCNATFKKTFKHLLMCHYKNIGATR
Briefly: cell-based. The note with it: agonist mode, % of control agonist. Also noted: species or system HEK293; TRUPATH BRET2 G-protein dissociation; antagonist mode against agonist EC80.

A further test has as its target T3, CHRM5 (Homo sapiens, UniProt P08912).
T3 sequence (P08912 1-532): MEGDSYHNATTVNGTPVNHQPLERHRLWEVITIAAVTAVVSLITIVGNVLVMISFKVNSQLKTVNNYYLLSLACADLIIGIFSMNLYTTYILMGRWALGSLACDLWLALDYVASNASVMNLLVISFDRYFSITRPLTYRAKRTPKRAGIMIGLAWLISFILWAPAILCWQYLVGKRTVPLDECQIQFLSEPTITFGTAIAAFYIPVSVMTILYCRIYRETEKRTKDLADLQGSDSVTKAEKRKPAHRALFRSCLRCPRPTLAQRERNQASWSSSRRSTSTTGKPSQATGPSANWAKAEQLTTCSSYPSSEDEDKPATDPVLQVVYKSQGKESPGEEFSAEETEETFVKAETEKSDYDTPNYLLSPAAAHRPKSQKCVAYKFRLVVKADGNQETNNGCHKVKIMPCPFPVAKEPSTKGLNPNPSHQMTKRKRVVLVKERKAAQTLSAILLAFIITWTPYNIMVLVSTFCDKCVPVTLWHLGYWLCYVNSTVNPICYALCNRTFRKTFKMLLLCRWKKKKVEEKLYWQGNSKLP
Description: cell-based. Also on record: species or system HEK293; TRUPATH BRET2 G-protein dissociation; antagonist mode against agonist EC80. To be noted: agonist mode, % of control agonist.

The target in a further test is HRH4 (Homo sapiens, UniProt Q9H3N8). Description: cell-based. The note with it: agonist mode, % of control agonist. Also noted: species or system HEK293; TRUPATH BRET2 G-protein dissociation; antagonist mode against agonist EC80.
Another test has as its target T4, α2A (Homo sapiens, UniProt P08913).
T4 construct: gene ADRA2A; full-length receptor; HEK293 cell membranes
Description: competitive radioligand binding, HEK293 membranes. An excerpt:
competitive radioligand binding, HEK293 membranes on α2A

Where [1] appears, read: HEK293, read-out: N-Desmethyl Xanomeline, Assay=Gi2.
Where [2] appears, read: HEK293, read-out: N-Desmethyl Xanomeline, Assay=GoA.
Setting [3] is: HEK293, read-out: N-Desmethyl Xanomeline, Assay=GoB.
Where [4] appears, read: HEK293, read-out: N-Desmethyl Xanomeline, Assay=Gq.
[5] abbreviates: HEK293, read-out: N-Desmethyl Xanomeline, Assay=Gi1.
[6] abbreviates: HEK293, read-out: N-Desmethyl Xanomeline, Assay=Gi3.
The mark [7] stands for this setting: HEK293, read-out: N-Desmethyl Xanomeline, Assay=Gz.
Setting [8] is: HEK293, read-out: Xanomeline, Assay=Gi2.
[9] abbreviates: HEK293, read-out: Xanomeline, Assay=GoA.
The mark [10] stands for this setting: HEK293, read-out: Xanomeline, Assay=GoB.
Setting [11] is: HEK293, read-out: Xanomeline, Assay=Gq.
Where [12] appears, read: HEK293, read-out: Xanomeline, Assay=Gi1.
[13] abbreviates: HEK293, read-out: Xanomeline, Assay=Gi3.
Setting [14] is: HEK293, read-out: Xanomeline, Assay=Gz.

Like-named read-outs stand apart in the source and are kept apart here.

Sequence of HTR1D (P28221 whole entry): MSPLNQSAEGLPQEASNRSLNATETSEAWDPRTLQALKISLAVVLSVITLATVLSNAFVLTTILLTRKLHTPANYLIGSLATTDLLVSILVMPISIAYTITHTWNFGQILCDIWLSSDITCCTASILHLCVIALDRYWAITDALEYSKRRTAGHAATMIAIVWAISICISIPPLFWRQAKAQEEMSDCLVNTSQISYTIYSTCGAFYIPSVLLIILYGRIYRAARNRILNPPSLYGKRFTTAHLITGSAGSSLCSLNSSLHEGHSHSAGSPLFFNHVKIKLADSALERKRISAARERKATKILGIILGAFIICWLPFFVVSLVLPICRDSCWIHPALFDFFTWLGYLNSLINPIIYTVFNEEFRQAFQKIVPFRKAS
Sequence of HRH4 (Q9H3N8 whole entry): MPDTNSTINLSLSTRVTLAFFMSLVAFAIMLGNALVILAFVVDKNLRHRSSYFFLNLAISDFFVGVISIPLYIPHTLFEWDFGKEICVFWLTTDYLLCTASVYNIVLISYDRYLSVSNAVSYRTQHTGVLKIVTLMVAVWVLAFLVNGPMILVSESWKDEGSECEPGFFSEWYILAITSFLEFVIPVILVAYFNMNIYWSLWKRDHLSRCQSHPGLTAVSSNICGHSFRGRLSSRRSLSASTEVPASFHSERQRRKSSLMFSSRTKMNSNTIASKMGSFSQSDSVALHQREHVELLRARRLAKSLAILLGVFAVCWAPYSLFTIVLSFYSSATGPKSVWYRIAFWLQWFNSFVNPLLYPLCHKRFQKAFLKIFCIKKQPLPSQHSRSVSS
Sequence of CHRM3 (P20309 whole entry): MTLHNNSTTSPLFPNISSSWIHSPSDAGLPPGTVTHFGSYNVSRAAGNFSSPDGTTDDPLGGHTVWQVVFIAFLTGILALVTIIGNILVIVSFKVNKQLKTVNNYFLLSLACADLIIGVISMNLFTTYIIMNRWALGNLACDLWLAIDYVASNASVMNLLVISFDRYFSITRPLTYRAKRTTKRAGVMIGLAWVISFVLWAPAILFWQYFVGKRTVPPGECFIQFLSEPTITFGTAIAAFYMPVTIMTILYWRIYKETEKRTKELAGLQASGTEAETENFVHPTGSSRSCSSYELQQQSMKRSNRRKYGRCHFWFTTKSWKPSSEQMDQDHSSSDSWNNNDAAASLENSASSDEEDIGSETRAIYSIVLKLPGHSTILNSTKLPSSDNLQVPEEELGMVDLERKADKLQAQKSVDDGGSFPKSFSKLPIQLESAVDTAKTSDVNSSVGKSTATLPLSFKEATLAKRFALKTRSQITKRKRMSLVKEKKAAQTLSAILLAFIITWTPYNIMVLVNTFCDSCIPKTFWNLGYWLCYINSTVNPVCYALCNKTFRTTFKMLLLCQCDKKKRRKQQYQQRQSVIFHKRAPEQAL
T4 sequence (P08913 whole entry): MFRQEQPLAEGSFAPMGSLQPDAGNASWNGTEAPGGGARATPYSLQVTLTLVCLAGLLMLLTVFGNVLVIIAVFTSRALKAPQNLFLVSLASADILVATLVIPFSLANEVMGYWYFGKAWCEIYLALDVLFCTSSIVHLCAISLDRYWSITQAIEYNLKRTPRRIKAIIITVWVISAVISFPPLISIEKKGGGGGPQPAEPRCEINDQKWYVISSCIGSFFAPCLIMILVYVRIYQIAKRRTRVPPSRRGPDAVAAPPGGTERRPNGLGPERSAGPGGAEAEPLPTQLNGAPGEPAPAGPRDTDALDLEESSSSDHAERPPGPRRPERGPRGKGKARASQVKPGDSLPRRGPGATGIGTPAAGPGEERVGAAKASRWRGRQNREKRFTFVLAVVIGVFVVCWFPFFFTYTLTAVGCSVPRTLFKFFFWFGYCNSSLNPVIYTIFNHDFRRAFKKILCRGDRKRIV

On to `CCCCCCOc1nsnc1C1=CCCNC1` [N-desmethylxanomeline], for which the Emax on HTR1A (setting [1]) came out at 103%; at HTR1A (setting [2]) it was 97.4%; on HTR1A (setting [3]), 98.8%; on CHRM3 (setting [4]), 62.4%; on HTR1D (setting [5]) it was 88.1%; on HTR1D (setting [1]), 66.3%. Moreover, the Emax is 82.1% at HTR1D (setting [6]); 92.2% at HTR1D (setting [2]); 73.8% on HTR1D (setting [3]); 93.6% on HTR1D (setting [7]); 87.3% on CHRM2 (setting [5]); 88.1% at CHRM2 (setting [1]). Also, the Emax was 65.4% at CHRM2 (setting [6]); 101% at CHRM2 (setting [2]); 95.1% at CHRM2 (setting [3]); 81.5% at CHRM2 (setting [7]); 80.4% on CHRM5 (setting [4]); 79.3% on HRH4 (setting [5]). In addition, the Emax turned out to be 81% on HRH4 (setting [1]), 86.8% on HRH4 (setting [6]) and 81.7% at HRH4 (setting [2]). Also, affinity on α2A was put at a Ki of 0.437 µM.
Consider `CCCCCCOc1nsnc1C1=CCCN(C)C1` [Xanomeline], for which the Emax came out at 99.6% on HTR1A (setting [8]); 94.5% on HTR1A (setting [9]); 91.7% at HTR1A (setting [10]); 65.6% on CHRM3 (setting [11]); 69.7% on HTR1D (setting [12]); 52.7% on HTR1D (setting [8]). Also, the Emax on HTR1D (setting [13]) came out at 66.7%; at HTR1D (setting [9]), 86.5%; at HTR1D (setting [10]), 63.4%; on HTR1D (setting [14]), 85.3%; on CHRM2 (setting [12]) it was 64.6%; on CHRM2 (setting [8]) it was 81.2%. The Emax on CHRM2 (setting [13]) stood at 30.2%; on CHRM2 (setting [9]), 99.1%; at CHRM2 (setting [10]) it was 97.2%; at CHRM2 (setting [14]), 60.4%; at CHRM5 (setting [11]), 82%; on HRH4 (setting [12]), 49.5%. For the same compound, the Emax at HRH4 (setting [8]) came to 65.8%; at HRH4 (setting [13]) it was 40.2%; at HRH4 (setting [9]), 37.4%. Also, on α2A, the Ki – broadly, a measure of affinity in units of concentration, obtained from inhibition or displacement – is 0.955 µM.
